Test results taken from patent US20120128654A1, “Allantoin Administration for the Treatment of Neurodegenerative Disease and Neurotrauma” (UNIVERSITY OF CINCINNATI, priority 2009, published 2012).

Assays:
nigral THir neurons = experiment: Unbiased stereological counts of THir cells in the substantia nigra after striatal 6-OHDA; format: in vivo, Sprague Dawley rats; conditions: experiment 2, KO alone vs control pellet, 4 weeks post-6-OHDA
Description: Rats were anesthetized prior to surgery with Equi-Thesin (0.3 ml/100 g body weight i.p.; chloral hydrate 42.5 mg/ml+sodium pentobarbital 9.72 mg/ml), their heads shaved, and then they were placed in a stereotaxic frame. Their skin was swabbed with Betadyne followed by 70% ETOH. The scalp was then opened to expose the skull. Two 1 mm holes were drilled into the skull and rats were injected in two sites in the striatum with 6-OHDA (MP Biomedicals, Solon, Ohio; 5 μg/μl 6-OHDA in 0.2% ascorbic acid, 0.9% saline solution). The coordinates for these injections were AP −1.6 mm, ML +2.4 mm, DV −4.2 mm and AP −0.2 mm, +ML 2.6 mm, DV −7.0 mm. The needle was zeroed at the skull directly above the injection site in order to target the DV coordinate. For each injection, the needle was lowered slowly to the injection site and 1 minute elapsed before injection commenced, 6-OHDA was injected at 0.5 μl/minute and at the end of the injection the needle was held in place for an additional 2 minutes prior to retraction. The wound area was cleaned with Betadine solution and the scalp was closed with surgical wound clips. This lesion paradigm results in a progressive loss of TH phenotype and frank DA cell death.
Animals were deeply anesthetized (60 mg/kg, pentobarbital, i.p.) and perfused intracardially with warm 0.9% saline containing 1 ml/L 10,000 USP heparin followed by ice-cold 0.9% saline. For immunoshistochemistry brains were removed, post fixed for 24 hours in 4% paraformaldehyde and transferred to 30% sucrose in 0.1M PO4 buffer. For determination of purine levels brains were immediately removed and flash frozen in 3-methyl butane. Brains were stored at −80° C. until analysis.
Brains were frozen on dry ice and sectioned at a 40 μm thickness using a sliding microtome. Every sixth section through the SN was processed for labeling with antisera against TH. Following blocking in 10% normal goat serum, tissue was incubated in primary antisera directed against TH (Chemicon MAB318, mouse anti TH 1:4,000) overnight at room temperature. Following primary incubation, sections were incubated in biotinylated secondary antisera against mouse IgG (Chemicon AP124B, 1:400) followed by the Vector ABC detection kit employing horseradish peroxidase (Vector Laboratories, Burlingame, Calif.). Antibody labeling was visualized by exposure to 0.5 mg/ml 3,3′ diaminobenzidine (DAB) and 0.03% H2O2 in Tris buffer. Sections were mounted on subbed slides, dehydrated to xylene and coverslipped with Cytoseal (Richard-Allan Scientific, Waltham, Mass.).
Unbiased stereological counts of THir cells were performed using a BX52 Olympus microscope (Olympus America Inc.) interfaced with Microbrightfield stereological software and a Microfire CCD camera (Optronics, Goleta, Calif.). Utilizing 2 μm guard zones and a 50 μm×50 μm counting frame a grid size of 112 μm×183 μm was employed to assure that all coefficient of error values were ≦0.10. Using the optical fractionator principle, the regions of interest were individually outlined under a low magnification (1.25×). Using a 60× magnification lens with a 1.4 N/A the section thickness was empirically determined by first bringing the top of the section into focus and then using Microbrightfield software to step through the z-axis in 1 μm increments until the very bottom of the section was in focus. […]

striatal 6-OHDA infusion = conditions: peripheral adenosine, Wistar rats; cited from earlier work

O=C([O-])c1nc(=O)[nH]c(=O)[nH]1.[K+] [KO, potassium oxonate]
number of THir neurons in either the intact or lesioned SN (nigral THir neurons): no significant impact

Nc1ncnc2c1ncn2[C@@H]1O[C@H](CO)[C@@H](O)[C@H]1O [adenosine]
neuroprotection against striatal 6-OHDA infusion (striatal 6-OHDA infusion): functional neuroprotection
